Earlier results, collected in patent US5348946A, “Heteroanthracycline antitumor analogs” (Biochem Immunosystems, Inc., priority 1991, dated 1994).

Conditions: compared with daunorubicin and doxorubicin; cited from earlier work

Compound | antileukemic activity
CC(=O)[C@@H]1Cc2c(c(O)c3oc4ccccc4c(=O)c3c2O)[C@@H](O[C@H]2C[C@H](N)[C@H](O)[C@H](C)O2)C1 [Compound 3] | antileukemic activity, but lower than that of the parent antibiotics daunorubicin and doxorubicin
CC(=O)[C@]1(O)Cc2c(c(O)c3oc4ccccc4c(=O)c3c2O)[C@@H](O[C@H]2C[C@H](N)[C@H](O)[C@H](C)O2)C1 [Compound 4] | antileukemic activity, but lower than that of the parent antibiotics daunorubicin and doxorubicin
CC(=O)[C@]1(O)Cc2c(c(O)c3oc4ccccc4c(=O)c3c2O)[C@@H](O[C@H]2C[C@H](NC(=O)C(F)(F)F)[C@H](O)[C@H](C)O2)C1 [Compound 5] | antileukemic activity, but lower than that of the parent antibiotics daunorubicin and doxorubicin
